The values below come from article PMC6704710, “Preclinical evaluation of 3D185, a novel potent inhibitor of FGFR1/2/3 and CSF-1R, in FGFR-dependent and macrophage-dominant cancer models” (Journal of Experimental & Clinical Cancer Research : CR, 2019).

Holding throughout (assay): Eurofins kinase panel
Holding throughout (assay type): biochemical
Settings in all cases: read-out: Inhibition rate (%)

Assay [1] addresses T1, EphB3(h) (Homo sapiens, UniProt P54753).
T1 construct: purchased Eurofins (KinaseProfiler)
T1 sequence (P54753 34-998): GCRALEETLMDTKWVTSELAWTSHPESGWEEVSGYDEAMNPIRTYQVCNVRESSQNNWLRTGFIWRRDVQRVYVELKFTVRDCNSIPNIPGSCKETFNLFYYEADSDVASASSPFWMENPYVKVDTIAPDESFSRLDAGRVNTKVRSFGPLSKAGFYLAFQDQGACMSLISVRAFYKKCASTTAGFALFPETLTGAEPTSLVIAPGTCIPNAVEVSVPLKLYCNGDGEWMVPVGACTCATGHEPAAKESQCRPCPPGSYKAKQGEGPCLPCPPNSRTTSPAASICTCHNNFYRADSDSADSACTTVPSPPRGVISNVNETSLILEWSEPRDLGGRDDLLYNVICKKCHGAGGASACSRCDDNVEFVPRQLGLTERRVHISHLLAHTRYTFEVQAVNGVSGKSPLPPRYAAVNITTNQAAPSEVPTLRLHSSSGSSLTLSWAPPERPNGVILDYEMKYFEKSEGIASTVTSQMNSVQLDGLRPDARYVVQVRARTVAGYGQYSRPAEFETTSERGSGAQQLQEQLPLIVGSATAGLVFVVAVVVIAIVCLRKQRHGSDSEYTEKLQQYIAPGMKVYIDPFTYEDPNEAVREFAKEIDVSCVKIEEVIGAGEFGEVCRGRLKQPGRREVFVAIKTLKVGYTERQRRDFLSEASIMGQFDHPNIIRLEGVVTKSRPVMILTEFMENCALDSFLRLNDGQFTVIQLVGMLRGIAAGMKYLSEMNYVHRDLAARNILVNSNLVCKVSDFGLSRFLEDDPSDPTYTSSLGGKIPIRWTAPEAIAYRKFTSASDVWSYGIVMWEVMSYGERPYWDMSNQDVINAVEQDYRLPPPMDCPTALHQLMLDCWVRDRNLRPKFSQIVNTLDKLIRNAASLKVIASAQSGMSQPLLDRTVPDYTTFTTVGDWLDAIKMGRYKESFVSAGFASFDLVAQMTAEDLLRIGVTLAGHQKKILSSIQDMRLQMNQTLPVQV

The target of assay [2] is T2, STK32C(h) (Homo sapiens, UniProt Q86UX6).
T2 construct: purchased Eurofins (KinaseProfiler)

Assay [3] deals with T3, SRPK1(h) (Homo sapiens, UniProt Q96SB4).
T3 construct: purchased Eurofins (KinaseProfiler)

For assay [4], the target named is T4, Tie2(Y897S)(h) (Homo sapiens, UniProt Q02763, Y897S).
T4 construct: purchased Eurofins (KinaseProfiler)

Assay [5] has as its target T5, MSSK1(h) (Homo sapiens, UniProt Q9UPE1).
T5 construct: purchased Eurofins (KinaseProfiler)

The target in assay [6] is T6, NEK4(h) (Homo sapiens, UniProt P51957).
T6 construct: purchased Eurofins (KinaseProfiler)
T6 sequence (P51957 whole entry): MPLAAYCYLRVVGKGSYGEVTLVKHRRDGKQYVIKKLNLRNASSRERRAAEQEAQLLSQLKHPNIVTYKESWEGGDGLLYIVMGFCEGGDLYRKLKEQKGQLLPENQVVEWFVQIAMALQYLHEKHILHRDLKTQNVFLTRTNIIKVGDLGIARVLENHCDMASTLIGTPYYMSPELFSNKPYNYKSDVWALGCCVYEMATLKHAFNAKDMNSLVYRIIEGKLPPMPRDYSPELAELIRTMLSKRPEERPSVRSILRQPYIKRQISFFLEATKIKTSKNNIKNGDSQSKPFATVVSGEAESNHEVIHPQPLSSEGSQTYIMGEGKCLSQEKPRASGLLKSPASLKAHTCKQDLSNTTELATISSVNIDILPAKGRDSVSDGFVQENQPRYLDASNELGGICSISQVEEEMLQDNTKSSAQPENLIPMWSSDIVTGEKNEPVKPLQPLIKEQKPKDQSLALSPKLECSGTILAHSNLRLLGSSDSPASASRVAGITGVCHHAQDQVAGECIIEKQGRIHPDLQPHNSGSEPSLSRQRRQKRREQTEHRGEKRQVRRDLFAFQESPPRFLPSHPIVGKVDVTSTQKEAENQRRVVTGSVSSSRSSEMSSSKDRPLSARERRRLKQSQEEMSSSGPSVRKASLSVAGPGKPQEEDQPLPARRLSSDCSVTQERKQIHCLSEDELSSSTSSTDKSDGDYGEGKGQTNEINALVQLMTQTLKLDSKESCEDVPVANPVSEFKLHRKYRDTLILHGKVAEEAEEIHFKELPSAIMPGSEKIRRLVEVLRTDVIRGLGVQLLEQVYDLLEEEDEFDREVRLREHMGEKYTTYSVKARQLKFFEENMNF

T3 sequence (Q96SB4 whole entry): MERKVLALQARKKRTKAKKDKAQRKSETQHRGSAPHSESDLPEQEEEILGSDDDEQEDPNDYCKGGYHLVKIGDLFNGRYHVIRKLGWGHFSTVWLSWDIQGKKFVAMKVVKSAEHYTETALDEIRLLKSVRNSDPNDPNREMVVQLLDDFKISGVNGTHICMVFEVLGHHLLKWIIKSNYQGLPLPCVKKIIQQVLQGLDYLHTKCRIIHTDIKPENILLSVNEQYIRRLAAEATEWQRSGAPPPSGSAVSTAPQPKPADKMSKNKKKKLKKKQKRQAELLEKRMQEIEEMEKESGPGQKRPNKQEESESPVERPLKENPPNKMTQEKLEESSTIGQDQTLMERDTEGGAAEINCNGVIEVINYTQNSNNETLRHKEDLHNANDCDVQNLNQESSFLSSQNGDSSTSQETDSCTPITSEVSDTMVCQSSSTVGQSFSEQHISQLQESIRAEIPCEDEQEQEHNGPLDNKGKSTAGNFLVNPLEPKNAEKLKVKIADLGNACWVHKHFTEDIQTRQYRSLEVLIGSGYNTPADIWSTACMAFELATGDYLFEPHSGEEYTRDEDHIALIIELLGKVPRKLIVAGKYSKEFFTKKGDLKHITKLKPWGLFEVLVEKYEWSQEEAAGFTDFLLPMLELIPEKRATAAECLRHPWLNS
T4 sequence (Q02763 23-1124 Y897S): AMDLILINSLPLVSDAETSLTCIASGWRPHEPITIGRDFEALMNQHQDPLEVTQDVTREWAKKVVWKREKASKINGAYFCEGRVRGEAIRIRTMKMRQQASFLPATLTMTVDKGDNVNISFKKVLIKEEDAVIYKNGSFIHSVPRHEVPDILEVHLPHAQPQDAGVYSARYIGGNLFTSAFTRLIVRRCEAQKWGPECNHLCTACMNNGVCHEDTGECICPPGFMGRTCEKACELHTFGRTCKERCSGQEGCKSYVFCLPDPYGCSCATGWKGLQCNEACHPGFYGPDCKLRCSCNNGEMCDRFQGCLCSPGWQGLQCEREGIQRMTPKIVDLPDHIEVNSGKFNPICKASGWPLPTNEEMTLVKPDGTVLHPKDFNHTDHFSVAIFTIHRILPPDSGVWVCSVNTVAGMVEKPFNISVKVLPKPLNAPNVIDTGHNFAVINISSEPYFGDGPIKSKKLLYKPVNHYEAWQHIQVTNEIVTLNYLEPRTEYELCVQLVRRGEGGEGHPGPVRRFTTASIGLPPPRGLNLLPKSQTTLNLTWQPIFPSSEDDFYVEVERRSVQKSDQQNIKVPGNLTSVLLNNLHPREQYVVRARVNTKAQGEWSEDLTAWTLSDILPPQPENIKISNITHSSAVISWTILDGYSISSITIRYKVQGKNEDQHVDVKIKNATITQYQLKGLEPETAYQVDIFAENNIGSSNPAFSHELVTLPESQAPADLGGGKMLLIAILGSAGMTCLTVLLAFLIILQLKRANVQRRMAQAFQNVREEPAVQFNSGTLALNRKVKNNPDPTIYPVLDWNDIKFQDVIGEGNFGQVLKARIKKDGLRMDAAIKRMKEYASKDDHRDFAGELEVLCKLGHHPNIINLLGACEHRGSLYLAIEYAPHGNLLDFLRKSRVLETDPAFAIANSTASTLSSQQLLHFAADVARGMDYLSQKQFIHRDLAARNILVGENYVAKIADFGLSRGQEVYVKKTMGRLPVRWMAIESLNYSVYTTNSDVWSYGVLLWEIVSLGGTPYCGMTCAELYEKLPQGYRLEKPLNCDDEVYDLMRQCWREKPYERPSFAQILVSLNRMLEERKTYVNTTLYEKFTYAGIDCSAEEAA
T5 sequence (Q9UPE1 whole entry): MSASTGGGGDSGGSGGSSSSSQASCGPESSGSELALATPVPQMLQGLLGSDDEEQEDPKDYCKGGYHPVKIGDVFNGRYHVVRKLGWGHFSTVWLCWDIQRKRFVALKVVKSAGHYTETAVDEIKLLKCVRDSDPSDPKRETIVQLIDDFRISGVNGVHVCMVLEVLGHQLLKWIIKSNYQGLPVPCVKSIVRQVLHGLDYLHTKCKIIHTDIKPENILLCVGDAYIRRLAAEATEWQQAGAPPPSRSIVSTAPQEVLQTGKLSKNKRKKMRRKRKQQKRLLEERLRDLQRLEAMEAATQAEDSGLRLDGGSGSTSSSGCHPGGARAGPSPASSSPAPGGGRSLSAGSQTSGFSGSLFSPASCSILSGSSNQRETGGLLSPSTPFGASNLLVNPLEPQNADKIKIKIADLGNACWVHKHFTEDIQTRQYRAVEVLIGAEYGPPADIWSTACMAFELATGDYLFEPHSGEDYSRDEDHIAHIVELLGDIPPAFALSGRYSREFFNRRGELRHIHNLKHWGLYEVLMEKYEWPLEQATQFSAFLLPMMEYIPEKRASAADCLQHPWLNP
T2 sequence (Q86UX6 whole entry): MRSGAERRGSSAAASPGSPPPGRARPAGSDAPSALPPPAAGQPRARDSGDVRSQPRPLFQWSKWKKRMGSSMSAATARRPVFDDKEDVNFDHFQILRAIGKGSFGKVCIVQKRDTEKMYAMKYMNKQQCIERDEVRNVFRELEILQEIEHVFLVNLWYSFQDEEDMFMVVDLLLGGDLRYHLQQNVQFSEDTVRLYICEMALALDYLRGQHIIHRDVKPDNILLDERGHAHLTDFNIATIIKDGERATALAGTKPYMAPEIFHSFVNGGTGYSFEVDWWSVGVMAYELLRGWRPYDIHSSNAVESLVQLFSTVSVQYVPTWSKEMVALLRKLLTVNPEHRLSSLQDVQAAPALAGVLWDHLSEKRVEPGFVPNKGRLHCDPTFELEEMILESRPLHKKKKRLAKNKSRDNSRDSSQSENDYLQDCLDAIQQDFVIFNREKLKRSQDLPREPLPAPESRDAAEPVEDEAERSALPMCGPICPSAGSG

As usually defined, the inhibition is the relative decrease from the control value, in per cent. As to `COc1cc(OC)c(Cl)c(-c2ccc3c(NC(=O)c4ccc(N5CCNC(C)(C)C5)cc4)n[nH]c3n2)c1Cl` [3D185], the inhibition at 0.01 µM in assay [1] (10 nM) turned out to be 13%; in assay [2] (10 nM) it was 11%; in assay [3] (10 nM) it was 13%; in assay [4] (10 nM), 14%; in assay [5] (10 nM) it was 3%; in assay [6] (10 nM) it was 16%. The inhibition at 0.1 µM in assay [1] (100 nM) turned out to be 1%; in assay [2] (100 nM), 8%; in assay [3] (100 nM) it was 9%; in assay [4] (100 nM), 39%; in assay [5] (100 nM), 11%; in assay [6] (100 nM), 15%. The inhibition at 1 µM in assay [1] (1000 nM) was 5%; in assay [2] (1000 nM), 7%; in assay [3] (1000 nM), 12%; in assay [4] (1000 nM), 88%; in assay [5] (1000 nM) it was 18%; in assay [6] (1000 nM) it was 74%.
